According to patent EP1054594B1, “INOTROPIC AND DIURETIC EFFECTS OF EXENDIN AND GLP-1” (AMYLIN PHARMACEUTICALS, INC., priority 1998, dated 2007):

Experiments:
[1] = Diuretic effects of GLP-1 or exendin in anesthetized rats (urine flow, sodium excretion, urinary potassium after intravenous bolus); format: in vivo, Male, Harlan Sprague Dawley rats
Experimental: Surgical preparation: The preparation used here was as described in Young et al., (Drug Dev Res. 37:231-248, 1996), but modified by the addition of unilateral ureteral cannulation. Anesthesia was induced with 5% halothane, maintained with 2% halothane during surgery and with 0.7 to 1% thereafter. Tracheotomy and cannulation of a femoral artery, saphenous vein and a single ureter were performed. […] The venous line was used for drug administration. Total saline infusion rate was kept at 4 mL/hr.
Observations are expressed as the percent of baseline, defined as the mean of measurements made in the 30 min prior to starting peptide or vehicle infusion. Data are expressed as mean±SEM. n=5-6.
Unilateral urine flow was measured by weighing the 15-minute output of the cannulated ureter. Total urine flow was estimated as twice this amount.
Treatments: To obtain dose-responses, peptides were dissolved in 0.15 M NaCl and administered as 0.1 ml bolus.

[2] = Arterial blood pressure and dP/dt in conscious rats by telemetry; format: in vivo, Male, Harlan Sprague Dawley rats; details: single intraperitoneal (ip) injection (100 µl)
Description: Insertion of Transducers: Male, Harlan Sprague Dawley rats were anesthetized with halothane and the abdominal aorta exposed after laparotomy. According to procedures detailed in the "Pressure Telemetry" manual from Data Sciences Inc., pressure transducer/transmitters were secured in place on the abdominal wall with the catheter tip in the abdominal aorta ~2mm above bifurcation. Following closure, the animals then recovered to allow at least 7 days of stable recordings. Baseline data were collected during the 7+ days after surgery.
The transmitted signals were recorded via telemetry and stored on a personal computer. Rate of pressure change, dP/dt, was calculated by software provided by Data Sciences.

In the case of CC[C@H](C)[C@H](NC(=O)[C@H](Cc1ccccc1)NC(=O)[C@H](CCC(=O)O)NC(=O)[C@H](CCCCN)NC(=O)[C@H](C)NC(=O)[C@H](C)NC(=O)[C@H](CCC(N)=O)NC(=O)CNC(=O)[C@H](CCC(=O)O)NC(=O)[C@H](CC(C)C)NC(=O)[C@H](Cc1ccc(O)cc1)NC(=O)[C@H](CO)NC(=O)[C@H](CO)NC(=O)[C@@H](NC(=O)[C@H](CC(=O)O)NC(=O)[C@H](CO)NC(=O)[C@@H](NC(=O)[C@H](Cc1ccccc1)NC(=O)[C@@H](NC(=O)CNC(=O)[C@H](CCC(=O)O)NC(=O)[C@H](C)NC(=O)[C@@H](N)Cc1c[nH]cn1)[C@@H](C)O)[C@@H](C)O)C(C)C)C(=O)N[C@@H](C)C(=O)N[C@@H](Cc1c[nH]c2ccccc12)C(=O)N[C@@H](CC(C)C)C(=O)N[C@H](C(=O)N[C@@H](CCCCN)C(=O)NCC(=O)N[C@@H](CCCNC(=N)N)C(N)=O)C(C)C [GLP-1], the sodium excretion [1] is reported as “increased”, the “cardiac contractility (dP/dt)” value [2] is reported as “increase” and the mean arterial pressure [2] is reported as “increase”.
